The source of these data is US20180168160A1, “MICROBICIDAL COMPOSITION” (Rohm and Haas Company, priority 2015, published 2018).

Where two headings read alike, the source gives them in different places.

For experiment [1], the system named is consortium of selected bacterial species, Escherichia coli (ATCC #25922), Pseudomonas aeruginosa (ATCC #9027, Staphylococcus aureus (ATCC #6538) and Klebsiella …). Description: Synergy test, high resolution MIC microtiter plate assay against a bacterial consortium. The format is cell-based. The settings on record: M9GY medium, 35° C., 24 hrs, visual turbidity, active ingredient basis. The source says: (§1) One measure of synergism is the industrially accepted method described by Kull, F. C.; Eisman, P. C.; Sylwestrowicz, H. D. and Mayer, R. L., in Applied Microbiology 9:538-541 (1961), using the ratio determined by the formula: Qa/QA+Qb/QB=Synergy Index (“SI”) wherein: QA=concentration of compound A (first component) in ppm, acting alone, which produced an end point (MIC of Compound A). QA=concentration of compound A in ppm, in the mixture, which produced an end point. QB=concentration of compound B (second component) in ppm, acting alone, which produced an end point (MIC of Compound B). Qb=concentration of compound B in ppm, in the mixture, which produced an end point.
(§2) When the sum of Qa/QA and Qb/QB is greater than one, antagonism is indicated. […] The lower the SI, the greater the synergy shown by that particular mixture. The minimum inhibitory concentration (MIC) of a microbicide is the lowest concentration tested under a specific set of conditions that prevents the growth of added microorganisms.
(§3) Synergy tests were conducted using standard microtiter plate assays with media designed for optimal growth of the test microorganism. Minimal salt medium supplemented with 0.2% glucose and 0.1% yeast extract (M9GY medium) was used for testing bacteria. In this method, a wide range of combinations of microbicides was tested by conducting high resolution MIC assays in the presence of various concentrations of DMDMH and Dazomet or THNM and Dazomet. High resolution MICs were determined by adding varying amounts of microbicide to one column of a microtiter plate and doing subsequent […] dilutions using an automated liquid handling system to obtain a series of endpoints ranging from 2 ppm to 1,000 ppm active ingredient.
(§4) The synergy of the combinations of the present invention was determined against a consortium of selected bacterial species, Escherichia coli (ATCC #25922), Pseudomonas aeruginosa (ATCC #9027, Staphylococcus aureus (ATCC #6538) and Klebsiella pneumoniae (ATCC #13883). The consortium was prepared using approximately 1×10^6 CFU per mL of each species. These microorganisms are representative of natural contaminants in many industrial applications. The plates were visually evaluated for microbial growth (turbidity) to determine the MIC after selected incubation times at 35° C. after 24 hrs.
(§5) In each test, Second Component (B) was Dazomet and the First Component (A) was DMDMH.

Experiment in experiment [2]: as above
The format is cell-based. The settings on record: M9GY medium, 35° C., 24 hrs, visual turbidity, active ingredient basis.
Text: as §1, §2, §3, §4, §5

With `CC1(C)C(=O)N(CO)C(=O)N1CO` [DMDMH, dimethylol-dimethylhydantoin], in experiment [1] (Table 1), the “MIC of DMDMH alone (QA)” value amounted to 200 µg/mL.
A word on the MIC: it is the least concentration at which growth counts as inhibited. `CN1CSC(=S)N(C)C1` [Dazomet, 3,5-dimethyl-1,3,5-thiadiazinane-2-thione]: the MIC in experiment [2] (Table 1, read-out: MIC of Dazomet alone (QB)) is 100 µg/mL. In experiment [1] (Table 2), the “MIC of Dazomet alone (QB)” value was 100 µg/mL.
Turning to `O=[N+]([O-])C(CO)(CO)CO` [THNM, tris(hydroxymethyl)nitromethane], in experiment [2] (Table 2, read-out: MIC of THNM alone (QA)), the minimal inhibitory concentration (MIC) is 400 µg/mL.
